pIC50: −log10 of the molar value.
Legend:
[1] = molecular target: T1, Aryl hydrocarbon receptor (Homo sapiens, UniProt P35869); assay: Antagonist activity at human AhR expressed in Saccharomyces cerevisiae W303-1A (ATCC 208352) transformed with an episomal plasmid containing a minimal CYC1 promoter, with a concatemer of five XRE enhancer sequences, linked to eGFP reporter gene and co-expressing ARNT assessed as inhibition of B[a]P agonist induced XRE-driven eGFP expression by measuring eGFP units at 1 uM after 18 hrs by …
T1 sequence (P35869 whole entry): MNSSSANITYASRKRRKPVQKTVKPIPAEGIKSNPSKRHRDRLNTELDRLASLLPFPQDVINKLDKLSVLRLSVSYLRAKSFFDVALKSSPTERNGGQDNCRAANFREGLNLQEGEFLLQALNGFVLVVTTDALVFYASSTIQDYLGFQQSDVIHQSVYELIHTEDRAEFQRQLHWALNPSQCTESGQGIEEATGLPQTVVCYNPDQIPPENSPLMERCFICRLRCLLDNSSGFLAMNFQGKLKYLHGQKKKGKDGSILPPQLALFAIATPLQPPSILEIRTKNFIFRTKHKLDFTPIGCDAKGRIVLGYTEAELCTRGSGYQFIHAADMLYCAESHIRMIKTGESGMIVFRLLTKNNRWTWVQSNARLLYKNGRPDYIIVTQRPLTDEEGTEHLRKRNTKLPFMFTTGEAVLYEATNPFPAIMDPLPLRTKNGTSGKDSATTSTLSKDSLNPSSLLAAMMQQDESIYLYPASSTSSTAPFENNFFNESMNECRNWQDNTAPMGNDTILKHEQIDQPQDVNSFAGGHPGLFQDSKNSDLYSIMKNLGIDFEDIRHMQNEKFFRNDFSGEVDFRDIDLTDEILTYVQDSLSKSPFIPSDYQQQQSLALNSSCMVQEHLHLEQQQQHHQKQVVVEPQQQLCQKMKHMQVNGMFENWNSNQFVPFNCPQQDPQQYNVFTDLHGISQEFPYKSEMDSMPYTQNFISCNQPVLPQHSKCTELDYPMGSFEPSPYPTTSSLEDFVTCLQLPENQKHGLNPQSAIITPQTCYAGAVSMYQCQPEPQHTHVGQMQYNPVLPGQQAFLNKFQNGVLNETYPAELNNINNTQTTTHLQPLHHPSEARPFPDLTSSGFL

Cytochrome P450 1A1 = molecular target: T2, Cytochrome P450 1A1 (Homo sapiens, UniProt P04798); assay: Inhibition of human CYP1A1 bound to yeast microsomal membrane using 7-ethoxyresorufin as substrate after 10 mins by fluorescence assay
T2 sequence (P04798 whole entry): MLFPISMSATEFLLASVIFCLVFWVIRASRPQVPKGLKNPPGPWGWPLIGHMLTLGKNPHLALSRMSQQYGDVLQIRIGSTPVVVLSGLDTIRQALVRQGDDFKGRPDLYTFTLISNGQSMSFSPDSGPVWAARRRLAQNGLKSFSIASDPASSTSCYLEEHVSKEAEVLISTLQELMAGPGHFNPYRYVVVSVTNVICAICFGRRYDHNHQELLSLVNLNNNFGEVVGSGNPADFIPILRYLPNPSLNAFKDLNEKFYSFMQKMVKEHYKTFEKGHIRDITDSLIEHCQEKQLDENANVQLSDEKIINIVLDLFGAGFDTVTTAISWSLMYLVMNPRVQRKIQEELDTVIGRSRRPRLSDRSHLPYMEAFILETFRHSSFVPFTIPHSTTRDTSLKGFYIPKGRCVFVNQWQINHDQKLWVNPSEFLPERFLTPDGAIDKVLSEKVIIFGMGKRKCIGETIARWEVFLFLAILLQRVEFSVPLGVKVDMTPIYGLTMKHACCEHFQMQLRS

Cytochrome P450 1B1 = molecular target: T3, Cytochrome P450 1B1 (Homo sapiens, UniProt Q16678); assay: Inhibition of human CYP1B1 bound to yeast microsomal membrane using 7-ethoxyresorufin as substrate after 10 mins by fluorescence assay
T3 sequence (Q16678 whole entry): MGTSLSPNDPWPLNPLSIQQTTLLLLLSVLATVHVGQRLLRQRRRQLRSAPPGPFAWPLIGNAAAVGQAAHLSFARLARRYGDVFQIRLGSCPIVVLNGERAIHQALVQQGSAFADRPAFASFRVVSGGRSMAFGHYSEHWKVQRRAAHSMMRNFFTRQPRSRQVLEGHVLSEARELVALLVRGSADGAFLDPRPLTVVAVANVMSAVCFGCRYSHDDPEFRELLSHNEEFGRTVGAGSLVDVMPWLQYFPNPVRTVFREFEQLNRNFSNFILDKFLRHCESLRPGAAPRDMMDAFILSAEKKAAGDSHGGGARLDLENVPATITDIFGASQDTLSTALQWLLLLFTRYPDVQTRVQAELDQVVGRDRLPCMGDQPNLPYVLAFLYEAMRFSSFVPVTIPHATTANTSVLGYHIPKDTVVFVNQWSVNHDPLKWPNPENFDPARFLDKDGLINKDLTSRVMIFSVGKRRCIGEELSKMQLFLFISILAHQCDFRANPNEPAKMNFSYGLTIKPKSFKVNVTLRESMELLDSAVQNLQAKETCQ

Cytochrome P450 1A2 [2] = molecular target: T4, Cytochrome P450 1A2 (Homo sapiens, UniProt P05177); assay: Inhibition of human CYP1A2 bound to yeast microsomal membrane using 3-cyano-7-ethoxycoumarin as substrate after 10 mins by fluorescence assay
T4 sequence (P05177 whole entry): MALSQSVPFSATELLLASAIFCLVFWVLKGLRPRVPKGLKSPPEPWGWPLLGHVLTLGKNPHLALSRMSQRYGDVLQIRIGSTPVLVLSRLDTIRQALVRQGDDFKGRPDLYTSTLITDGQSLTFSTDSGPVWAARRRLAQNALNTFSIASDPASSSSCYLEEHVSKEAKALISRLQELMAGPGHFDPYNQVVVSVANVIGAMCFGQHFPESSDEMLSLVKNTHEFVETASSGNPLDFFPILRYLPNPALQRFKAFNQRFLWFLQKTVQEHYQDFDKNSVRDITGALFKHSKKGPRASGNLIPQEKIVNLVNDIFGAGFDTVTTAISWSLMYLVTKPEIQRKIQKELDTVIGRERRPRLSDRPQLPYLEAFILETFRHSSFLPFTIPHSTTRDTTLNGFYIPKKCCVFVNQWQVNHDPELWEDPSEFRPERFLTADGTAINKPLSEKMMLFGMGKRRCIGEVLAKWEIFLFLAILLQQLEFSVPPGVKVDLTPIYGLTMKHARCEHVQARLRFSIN

Cytochrome P450 2C19 = Cytochrome P450 2C19 (Homo sapiens, UniProt P33261); assay: Inhibition of human CYP2C19 bound to yeast microsomal membrane using 3-cyano-7-ethoxycoumarin as substrate after 10 mins by fluorescence assay; assay type: ADME
Sequence of Cytochrome P450 2C19 (P33261 whole entry): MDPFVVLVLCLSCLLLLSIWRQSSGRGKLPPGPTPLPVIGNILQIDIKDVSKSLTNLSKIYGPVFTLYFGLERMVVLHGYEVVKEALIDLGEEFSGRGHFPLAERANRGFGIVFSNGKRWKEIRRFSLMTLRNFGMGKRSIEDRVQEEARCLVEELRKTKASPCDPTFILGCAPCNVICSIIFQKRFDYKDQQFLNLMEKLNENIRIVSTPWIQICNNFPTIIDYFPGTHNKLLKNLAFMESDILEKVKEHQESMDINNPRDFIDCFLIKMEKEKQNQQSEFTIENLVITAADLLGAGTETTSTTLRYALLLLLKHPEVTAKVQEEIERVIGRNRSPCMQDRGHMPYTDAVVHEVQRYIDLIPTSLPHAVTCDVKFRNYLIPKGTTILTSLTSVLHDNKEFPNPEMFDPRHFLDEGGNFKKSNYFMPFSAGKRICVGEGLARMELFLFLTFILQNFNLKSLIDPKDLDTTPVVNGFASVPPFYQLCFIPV

Cytochrome P450 3A4 = Cytochrome P450 3A4 (Homo sapiens, UniProt P08684); assay: Inhibition of human CYP3A4 bound to yeast microsomal membrane using dibenzylfluorescein as substrate after 10 mins by fluorescence assay; assay type: ADME
Sequence of Cytochrome P450 3A4 (P08684 whole entry): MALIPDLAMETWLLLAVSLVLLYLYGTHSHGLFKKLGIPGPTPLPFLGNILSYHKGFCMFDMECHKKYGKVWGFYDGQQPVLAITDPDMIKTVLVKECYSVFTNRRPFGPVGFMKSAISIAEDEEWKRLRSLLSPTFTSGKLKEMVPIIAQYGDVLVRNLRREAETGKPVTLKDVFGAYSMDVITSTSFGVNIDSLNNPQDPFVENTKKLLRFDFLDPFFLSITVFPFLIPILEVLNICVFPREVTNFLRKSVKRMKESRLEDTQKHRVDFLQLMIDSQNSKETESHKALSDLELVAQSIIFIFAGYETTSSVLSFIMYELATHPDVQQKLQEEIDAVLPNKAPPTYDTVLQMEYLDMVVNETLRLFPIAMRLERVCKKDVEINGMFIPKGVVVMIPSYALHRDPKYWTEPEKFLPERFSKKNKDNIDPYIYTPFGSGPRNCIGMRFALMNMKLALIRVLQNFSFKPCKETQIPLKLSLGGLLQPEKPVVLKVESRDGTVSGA

Cytochrome P450 1A2 [3] = molecular target: T4, Cytochrome P450 1A2; assay: Inhibition of human CYP1A2 expressed in HEK293 cells using fluorogenic 3-cyano-7-ethoxycoumarin as substrate preincubated for 30 mins followed by substrate addition measured for 60 mins by fluorescence assay; assay type: cell-based
Cytochrome P450 2D6 = Cytochrome P450 2D6 (Homo sapiens, UniProt P10635); assay: Inhibition of human CYP2D6 expressed in HEK293 cells using fluorogenic 7-ethoxy-methyloxy-3-cyanocoumarin as substrate preincubated for 30 mins followed by substrate addition measured for 60 mins by fluorescence assay; assay type: ADME, cell-based
Sequence of Cytochrome P450 2D6 (P10635 whole entry): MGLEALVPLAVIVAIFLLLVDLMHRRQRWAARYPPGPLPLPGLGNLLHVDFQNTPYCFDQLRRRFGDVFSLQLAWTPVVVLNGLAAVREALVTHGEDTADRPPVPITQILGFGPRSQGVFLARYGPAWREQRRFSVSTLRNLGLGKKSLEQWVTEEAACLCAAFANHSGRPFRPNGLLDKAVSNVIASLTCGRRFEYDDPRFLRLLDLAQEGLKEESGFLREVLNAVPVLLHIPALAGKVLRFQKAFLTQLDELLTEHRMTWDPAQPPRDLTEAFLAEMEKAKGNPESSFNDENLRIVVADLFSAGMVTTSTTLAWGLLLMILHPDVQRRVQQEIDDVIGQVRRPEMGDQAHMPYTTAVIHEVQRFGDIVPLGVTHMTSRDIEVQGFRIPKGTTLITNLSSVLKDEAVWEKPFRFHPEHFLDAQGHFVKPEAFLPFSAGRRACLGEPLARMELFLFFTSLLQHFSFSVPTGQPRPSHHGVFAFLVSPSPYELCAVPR

Homo sapiens [4] = species on record: Homo sapiens; assay: Selectivity ratio of IC50 for human CYP2C9 bound to yeast microsomal membrane to IC50 for human CYP1A2 bound to yeast microsomal membrane
Homo sapiens [5] = species on record: Homo sapiens; assay: Selectivity ratio of IC50 for human CYP2C19 bound to yeast microsomal membrane to IC50 for human CYP1B1 bound to yeast microsomal membrane

Activity [1] [U]	pIC50 (Cytochrome P450 1A1)	pIC50 (Cytochrome P450 1B1)	pIC50 (Cytochrome P450 1A2 [2])	pIC50 (Cytochrome P450 2C19)	pIC50 (Cytochrome P450 3A4)	pIC50 (Cytochrome P450 1A2 [3])	pIC50 (Cytochrome P450 2D6)	Compound	Ratio IC50 (Homo sapiens [4])	Ratio IC50 (Homo sapiens [5])
920	5.04	6.70	6.15	< 4.70	< 4.70	6.05	< 5.00	O=C(/C=C/c1ccccc1Cl)c1ccc[nH]1	> 20	> 20
955	< 4.70	< 4.70	< 4.70	< 4.70	< 4.70	< 4.70	< 4.70	O=C(/C=C/c1ccc(OC(F)(F)F)cc1)c1ccc[nH]1	–	–
600	6.05	6.05	5.96	< 4.70	< 4.70	5.96	4.70	COc1ccccc1/C=C/C(=O)c1ccc[nH]1	> 20	> 20
